Measured values from patent US5225543A, “Receptors method for purification of G protein-linked” (priority 1991, dated 1993).
pKd: −log10 of the molar value. Values belong to the substance of their own block, whether it stands above or below them. Where no end group is shown, it is not given here. The star is where a group is joined. 125I = [125I]*

Key:
[1] = target: T1, SRIF receptor (GH4 C1 membranes) (Rattus norvegicus, UniProt P30680); assay: Scatchard analysis of [^125 I]-labelled ligand binding to GH4 C1 membranes (FIG. 5); details: read-out: dissociation constant (KD)
T1 construct: GH4 C1 rat pituitary tumor cells; endogenous in cells; host or cells: GH4 C1 rat pituitary tumor cells (isolated membranes)
T1 sequence (P30680 whole entry): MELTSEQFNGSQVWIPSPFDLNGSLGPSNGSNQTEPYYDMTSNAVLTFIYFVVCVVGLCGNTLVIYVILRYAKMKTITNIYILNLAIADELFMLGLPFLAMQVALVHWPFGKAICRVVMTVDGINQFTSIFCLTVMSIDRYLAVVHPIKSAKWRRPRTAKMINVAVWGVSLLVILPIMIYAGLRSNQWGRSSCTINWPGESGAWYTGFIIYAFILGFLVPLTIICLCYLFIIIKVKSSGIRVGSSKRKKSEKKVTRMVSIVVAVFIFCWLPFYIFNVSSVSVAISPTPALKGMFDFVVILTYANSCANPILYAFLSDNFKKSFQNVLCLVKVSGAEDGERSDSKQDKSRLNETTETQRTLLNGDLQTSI
Description: 1. Standard Binding Assays--Binding assays are done in a binding buffer containing 50 mM HEPES (pH 7.4), 0.5% BSA and 5 mM MgCl2. The standard assay for [^125 I]SRIF analog binding to GH4 CL membranes, done in 96 well microtiter plates (Dynatech Immulon II Removawell plates), is carried out as follows: 1. Radioligand is diluted in binding buffer+PMSF/Baci to the desired cpm per vol. of 50 μl and then 50 μl aliquots are added to the wells. For non-specific binding samples, 5 μl of 40 μM cold S14 is also added per well. 2. Binding is initiated by adding 150 μl per well of membrane diluted to the desired concentration (10-30 ug membrane protein/well) in binding buffer+PMSF/Baci. Plates are then covered with Linbro mylar plate sealers (Flow Labs) and placed on a Dynatech Microshaker II and binding is allowed to proceed at room temperature for 1-2 hours. Binding is stopped by centrifuging the plate for 15 minutes at 2,000×g. The supernatants are dumped off and membrane pellets washed once by addition of 200 μl of ice cold binding buffer, brief shaking and recentrifugation. Finally the individual wells are placed in 12×75 mm tubes and counted in an LKB Gammamaster counter (78% efficiency). Specific binding by this method is identical to that measured when free ligand is removed by rapid (3-5 seconds) filtration and washing on polyethyleneimine-coated glass fiber filters.
3. […]

[2] = system: somatostatin receptor (GH4 C1 membranes); assay: Binding, CHAPS solubilization and recovery of SRIF receptor:[^125 I]Tyr11-S14 complex (FIG. 1, Table 1); parameters: species or system rat; details: for CPM recovered, B. Nonspecific: 10^-6 M cold S14; for CPM recovered, A. Total: without cold S14
Description: FIG. 1 illustrates separation of receptor-bound and free [^125 I]Tyr11-S14. Radioligand is bound to GH4 C1 membranes as described in "Materials and Methods". The binding incubations contain 2 mg membrane protein and 6×10^6 cpm of radioligand in 8 ml. A non-specific binding sample is identical except for the addition of 1 uM cold S14. Initial cpm bound were 1.43×10^6 (total) and 0.65×10^6 (non-specific). After the binding step, membranes are resuspended at 1 […] in the presence of 1% CHAPS detergent in a buffer containing 25 mM Tris (pH 8), 10% glycerol and 0.2 mM CaCl2 (solubilization buffer). A protease inhibitor cocktail ("100×4 pase" described in "Materials and Methods") is also added as 1% of final volume. Solubilization is allowed to proceed for 1 hour on ice, and then the mixture is centrifuged for 30 minutes at 100,000×g. CPM in the 100,000×g supernatant were 0.61×10^6 (total) and 0.29×10^6 (non-specific). Free [^125 I]Tyr11-S14 is added to the non-specific binding sample to give equal cpm in the two samples. Then 0.25 ml aliquots of each supernatant ([…]) are loaded onto 0.8×13 cm columns of Sephadex G-50. The columns are eluted at a flow rate of 0.7 ml/min with solubilization buffer + 1% BSA. 0.18 ml fractions are collected and counted for radioactivity.
0.18 ml samples are collected. […] The mixture is held on ice for 15 minutes.
[^125 I]Tyr11-S14 is bound to GH4 C1 membranes as described above ("Methods: Receptor Binding Methods, 4."), except that these binding assays contain 2 mg membrane protein in 8 ml (0.25 mg membrane protein/ml). Radioligand is […]. A non-specific binding sample is identical except for the addition of 1 uM cold S14. Initial cpm bound is 1.43×10^6 (total) and 0.65×10^6 (nonspecific). After the binding step, membranes are solubilized in solubilization buffer containing 0.2 mM CaCl2 and 1% CHAPS ("Methods: Membrane Solubilization"). CPM in the 100,000×g supernatants are 0.61×10^6 (total) and 0.29×10^6 (nonspecific). Free [^125 I]Tyr11-S14 is added to the nonspecific binding sample to give equal cpm in the two samples. Then 0.25 ml aliquots of each supernatant (75-80,000 cpm) are loaded onto 0.8×13 cm columns of Sephadex G-50. The columns are eluted as described in "Methods: Assay of Solubilized Receptors, 1." and the fractions counted for radioactivity.
A peak of high MW material eluting in the column void volume (peak I; 34% of total cpm) contain specifically bound radioactivity. […] Peak II in FIG. 1 represents free [^125 I]Tyr11-S14, and is the major peak in the nonspecific binding sample. In FIG. 1 it is important to note that just before applying samples to the columns, free [^125 I]Tyr11-S14 is added to the non-specific binding sample to equalize the cpm in the two samples. […] The GFB/PEI method is used in subsequent experiments.
0.25 ml samples containing solubilized R:L complex, from the preparation described in FIG. 1 are separated from free radioligand either by: (1) chromatography on Sephadex G-50 (see FIG. 1), (2) Precipitation with polyethyleneglycol+bovine gamma globulin with collection of the precipitates on GFB filters or (3) adsorption on polyethyleneimine-coated,GFB filters (for methods 2 and 3 see "Methods: Assay of Solubilized Receptors, 2 and 3"). Radioactivity recovered in peak I (Method 1) or on filters (Methods 2 and 3) is compared in the Table.

[3] = target: T1, SRIF receptor (GH4 C1 membranes); assay: Binding of [^125 I] biotinyl-SRIF ligands to GH4 C1 membranes (CPM bound/mg); details: radioligand 0.77×10^6 cpm/ml
Description: 4. Larger scale binding assays to obtain membrane pellets for studies on solubilization of receptor:ligand complex and for receptor purification are also carried out. These are identical to the standard assays except that: (a) Binding is carried out in polypropylene tubes in volumes from 1-250 ml, with the wash step being done in the same volume as initially used for binding, (b) Concentration of membrane protein is always 0.5 mg/ml, (c) For receptor purification, BSA concentration in the binding buffer is reduced to 0.25% and the wash step is done with binding buffer without BSA. This is to reduce BSA contamination of the purified receptor.
To compare the three biotinyl-SRIF analogs in terms of binding to streptavidin, the following experiment is done. [^125 I]Bio-SRIF analogs are bound to GH4 C1 membranes as described ("Methods: Receptor Binding Methods, 4"). All radioligands are at a concentration of 0.77×10^6 cpm/ml. For each radioligand, a control for non-specific binding is done in the presence of 1 uM cold S14. […] At the times shown, the SA beads are spun down and 100 ul samples of supernatant are counted. The cpm are compared to initial cpm in the sample and % binding to SA is calculated from this. […]

[4] = system: streptavidin (SA-agarose); assay: Binding of [^125 I]-labelled biotinyl-SRIFs (solubilized R:L complex) to immobilized streptavidin (Table 3)
Description: 3. Adsorption of solubilized R:L complex to streptavidin. Immobilized streptavidin (streptavidin cross-linked to 6% beaded agarose, Pierce Chemical Co.; "SA-agarose") is washed in solubilization buffer and added to the solubilized membranes as 1/30 of the final volume. This mixture is incubated with constant stirring by end-over-end rotation for 4-5 hours at 4°-10° C. Then the mixture is applied to a column and the non-bound material is washed through. Binding of radioligand to SA-agarose is determined by comparing cpm in the 100,000×g supernatant with that in the column effluent after adsorption to SA-agarose. Finally, the column is washed with 12-15 column volumes of solubilization buffer+0.15% deoxycholate:lysolecithin+1/500 (vol/vol) 100×4pase.
To compare the three biotinyl-SRIF analogs in terms of binding to streptavidin, the following experiment is done. [^125 I]Bio-SRIF analogs are bound to GH4 C1 membranes as described ("Methods: Receptor Binding Methods, 4"). All radioligands are at a concentration of 0.77×10^6 cpm/ml. For each radioligand, a control for non-specific binding is done in the presence of 1 uM cold S14. CPM bound/mg membrane protein after the binding step are as follows: [^125 I]Bio-6C-S14=755,020 (total) and 43,361 (non-specific); [^125 I]Bio-12C=S14=633,134 (total) and 39,538 (nonspecific); [^125 I]Bio-S28=1,065,512 (total) and 35,049 (nonspecific). The membrane pellets are solubilized in solubilization buffer containing 0.15% deoxycholate:lysolecithin and 0.2 mM MgCl2 as described ("Methods: Membrane Solubilization"). […] One ml samples of solubilized membranes are incubated with 0.05 ml vols of streptavidin-agarose at 4°-10° C. on a tube rotator for the times shown. Non-specific binding samples are not done due to the low levels of non-specific binding. At the times shown, the SA beads are spun down and 100 ul samples of supernatant are counted. The cpm are compared to initial cpm in the sample and % binding to SA is calculated from this. Also, it should be noted that binding of cpm from the supernatant is considered to parallel the binding of R:L complex. Several observations confirm that this is a valid assumption.
CPM are determined for 100 ul samples of initial 100,000×g supernatant (containing soluble R:L complex) and supernatant after incubation with SA-agarose for times shown.

[5] = GFB/PEI filters, triplicate, SE 5%
[6] = PEG precipitation, triplicate, SE 5%

pKd [1]: 10.00
Initial cpm bound, nonspecific ([2]; 2 mg membrane protein in 8 ml, plus 1 uM cold S14): 0.65×10^6 cpm
Initial cpm bound, total ([2]; 2 mg membrane protein in 8 ml, total): 1.43×10^6 cpm
peak I (void volume) share of total cpm ([2]; 1% CHAPS, Sephadex G-50): 34 % of total cpm
specifically bound ligand recovered, of initial specifically bound cpm on intact membranes ([2]; 1% CHAPS, Sephadex G-50 peak I): 11%
CPM in 100,000×g supernatant, nonspecific ([2]; 1% CHAPS, plus 1 uM cold S14): 0.29×10^6 CPM
CPM in 100,000×g supernatant, total ([2]; 1% CHAPS, total): 0.61×10^6 CPM
Specifically bound ligand recovered (A-B) ([2]; GFB/PEI filters): 20,340 CPM
CPM recovered, B. Nonspecific [2, 5]: 7,193 CPM
CPM recovered, A. Total [2, 5]: 27,533 CPM
Specifically bound ligand recovered (A-B) ([2]; PEG precipitation): 17,272 CPM
CPM recovered, B. Nonspecific [2, 6]: 7,803 CPM
CPM recovered, A. Total [2, 6]: 23,075 CPM
Specifically bound ligand recovered (A-B) ([2]; Sephadex G-50): 16,840 CPM
CPM recovered, B. Nonspecific ([2]; Sephadex G-50): 9,104 CPM
CPM recovered, A. Total ([2]; Sephadex G-50): 23,944 CPM
Substance: [^125 I]Tyr11-S14: non-biotinylated radioligand, [^125 I]Tyr11-S14 (AGCKNFFWKTY(125I)TSC; ends and bridges not checked; UniProt P61278 103-116, looked up, variant F11Y)

pKd [1]: 9.70
CPM bound/mg membrane protein, nonspecific ([3]; in presence of 1 uM cold S14): 35,049 CPM bound/mg membrane protein
CPM bound/mg membrane protein, total ([3]; total): 1,065,512 CPM bound/mg membrane protein
binding of solubilized R:L complex to immobilized streptavidin vs Bio-6C-S14 and Bio-12C-S14 [4]: binds somewhat better
Initial CPM ([4]; 100 ul of initial 100,000×g supernatant): 92,534 CPM
% Binding of radioligand to SA-agarose, 1 hour ([4]; 1 hour): 66%
% Binding of radioligand to SA-agarose, 3 hours ([4]; 3 hours): 82%
Non-bound CPM, 1 hour ([4]; supernatant after 1 hour with SA-agarose): 31,645 CPM
Non-bound CPM, 3 hours ([4]; supernatant after 3 hours with SA-agarose): 17,098 CPM
Substance: biotinyl-NH(Leu8, D-Trp22, [^125 I]Tyr25)SRIF [[^125 I]Bio-S28]
